In patent US20250195521A1 (Revolution Medicines, Inc., priority 2020, published 2025) one finds IC50 data, which are given here for four molecules.

Read-outs that look alike come from different tables or passages of the source.

For one test, the system named is NCI-H358 (K-Ras G12C). Nature of the test: CellTiter-Glo cell viability assay, NCI-H358. In kind it is cell-based, human. The gist of the method: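 Cells seeded, compound added directly to plates; day 5: plates to RT ~30 min, CellTiter-Glo luminescence; (sample/avg DMSO)*100; 4-parameter fit.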
In general terms: In ATP-based viability assays light output follows the ATP content of the culture.

The target of another test is KRAS G12S (Homo sapiens (Human), UniProt P01116+P62937, G12S). Nature of the test: Ras-Raf disruption/FRET/MOA assay (BRAF RBD, Cyclophilin A). In kind it is biochemical. As to conditions: read-out: KRAS G12S FRET IC50. The gist of the method: (§1)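 His6-K-Ras-GMPPNP (12.5 nM), GST-BRAF RBD (50 nM) and tagless Cyclophilin A (25 μM) were combined in 25 mM HEPES pH 7.3 with 100 mM NaCl, 5 mM MgCl2, 0.1% BSA and 0.002% Tween20, with compound as a 10-point 3-fold series from 30 μM final, then incubated 3 h at 25° C.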
Sequence of KRAS G12S (P01116 other isoform, or with tags, fused parts or gaps G12S): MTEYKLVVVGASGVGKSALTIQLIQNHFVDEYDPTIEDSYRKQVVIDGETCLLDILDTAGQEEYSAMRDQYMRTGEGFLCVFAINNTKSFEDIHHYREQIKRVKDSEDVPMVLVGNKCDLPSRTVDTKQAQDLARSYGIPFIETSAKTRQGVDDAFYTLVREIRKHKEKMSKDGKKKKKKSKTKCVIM
Sequence of KRAS G12S (P62937 whole entry): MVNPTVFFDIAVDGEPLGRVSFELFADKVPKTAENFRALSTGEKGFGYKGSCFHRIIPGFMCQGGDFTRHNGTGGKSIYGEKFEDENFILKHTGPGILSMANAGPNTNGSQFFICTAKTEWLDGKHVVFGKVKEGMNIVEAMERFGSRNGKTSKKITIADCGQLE

For a further test, the target named is NRAS G12C (Homo sapiens (Human), UniProt P01111+P62937, G12C). Described as above. The format is biochemical. Particulars: read-out: NRAS G12C FRET data IC50. The gist of the method:
(§2)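 First, 25 μM Cyclophilin A, 12.5 nM His6-Ras-GMPPNP and 50 nM GST-BRAF RBD are mixed with diluted compound at pH 7.3. Next, 3 h at 25° C. Then 10 nM anti-His Eu-W1024 plus 50 nM anti-GST allophycocyanin for 1.5 h before TR-FRET reading.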

In another test the target is KRAS G13C (Homo sapiens (Human), UniProt P01116+P62937, G13C). Described as above. In kind it is biochemical. Particulars: read-out: KRAS G13C FRET IC50. The gist of the method: as §1
Sequence of KRAS G13C (P01116 other isoform, or with tags, fused parts or gaps G13C): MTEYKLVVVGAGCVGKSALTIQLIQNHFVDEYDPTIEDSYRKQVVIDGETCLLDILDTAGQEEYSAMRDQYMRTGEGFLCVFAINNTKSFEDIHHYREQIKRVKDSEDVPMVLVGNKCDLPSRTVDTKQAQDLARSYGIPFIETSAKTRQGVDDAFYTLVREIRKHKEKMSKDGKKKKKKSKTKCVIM
Sequence of KRAS G13C (P62937 whole entry): as the sequence (P62937 whole entry) above
Another test deals with KRAS G12D (Homo sapiens (Human), UniProt P01116+P62937, G12D). Described as above. In kind it is biochemical. As to conditions: read-out: KRAS G12D FRET IC50. A digest of the protocol: as §1
Sequence of KRAS G12D (P01116 other isoform, or with tags, fused parts or gaps G12D): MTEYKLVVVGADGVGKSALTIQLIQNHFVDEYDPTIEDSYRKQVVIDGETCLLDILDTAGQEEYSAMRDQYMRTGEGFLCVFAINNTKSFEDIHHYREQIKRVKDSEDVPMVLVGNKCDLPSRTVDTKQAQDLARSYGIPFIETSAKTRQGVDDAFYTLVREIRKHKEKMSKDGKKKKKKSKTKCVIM
Sequence of KRAS G12D (P62937 whole entry): as the sequence (P62937 whole entry) above
For a further test, the target named is KRAS G13D (Homo sapiens (Human), UniProt P01116+P62937, G13D). The test is described as above. In kind it is biochemical. As to conditions: read-out: KRAS G13D FRET data IC50. The gist of the method: as §1
Sequence of KRAS G13D (P01116 other isoform, or with tags, fused parts or gaps G13D): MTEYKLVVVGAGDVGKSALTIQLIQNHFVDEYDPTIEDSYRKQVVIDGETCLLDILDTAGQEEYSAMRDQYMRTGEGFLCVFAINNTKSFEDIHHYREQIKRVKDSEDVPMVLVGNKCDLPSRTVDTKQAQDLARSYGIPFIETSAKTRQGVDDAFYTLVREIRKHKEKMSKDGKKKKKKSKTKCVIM
Sequence of KRAS G13D (P62937 whole entry): as the sequence (P62937 whole entry) above
For another test, the target named is KRAS Q61H (Homo sapiens (Human), UniProt P01116+P62937, Q61H). The test is described as above. The format is biochemical. The gist of the method:
as §1

The next test concerns the target KRAS G12C (Homo sapiens (Human), UniProt P01116+P62937, G12C). The test is described as above. In kind it is biochemical. As to conditions: read-out: KRAS G12C FRET IC50. The gist of the method: as §1
Another test addresses NRAS WT (Homo sapiens (Human), UniProt P01111+P62937). Described as above. In kind it is biochemical. The gist of the method: as §2
Another test has as its target KRAS G12V (Homo sapiens (Human), UniProt P01116+P62937, G12V). The description is as above. As to conditions: read-out: KRAS G12V FRET IC50. In kind it is biochemical. The gist of the method:
as §1

A further test deals with KRAS WT (Homo sapiens (Human), UniProt P01116+P62937). The test is described as above. As to conditions: read-out: KRAS WT FRET data IC50. In kind it is biochemical. A digest of the protocol:
as §1

The test system of test [1] is NCI-H358 cells (K-Ras G12C). Nature of the test: CellTiter-Glo cell viability, NCI-H358. The format is cell-based, human. Particulars: read-out: H358 Cell Viability IC50. A digest of the protocol: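 Cells seeded, compound dispensed straight into wells, 5-day exposure. Plates brought to room temperature ~30 min, CellTiter-Glo luminescence measured. Normalized to DMSO (%), 4-parameter logistic fit.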

The target of a further test is NRAS Q61R (Homo sapiens (Human), UniProt P01111+P62937, Q61R). The experiment in a line: Ras-Raf disruption/FRET/MOA assay (BRAF RBD, Cyclophilin A). The format is biochemical. The gist of the method:
as §2

The mark [2] stands for this setting: Homo sapiens, NCI-H358, 120 h, 5-day treatment, read-out: H358 Cell Viability assay data (K-Ras G12C, IC50).

Sequence of KRAS G12V (P01116 other isoform, or with tags, fused parts or gaps G12V): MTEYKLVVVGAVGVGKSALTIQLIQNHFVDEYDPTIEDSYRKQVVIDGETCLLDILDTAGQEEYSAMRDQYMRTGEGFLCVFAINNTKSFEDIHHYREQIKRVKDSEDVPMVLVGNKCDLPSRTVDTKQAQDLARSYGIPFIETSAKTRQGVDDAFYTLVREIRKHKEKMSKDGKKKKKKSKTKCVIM
Sequence of KRAS G12V (P62937 whole entry): as the sequence (P62937 whole entry) above
Sequence of KRAS WT (P01116 other isoform, or with tags, fused parts or gaps): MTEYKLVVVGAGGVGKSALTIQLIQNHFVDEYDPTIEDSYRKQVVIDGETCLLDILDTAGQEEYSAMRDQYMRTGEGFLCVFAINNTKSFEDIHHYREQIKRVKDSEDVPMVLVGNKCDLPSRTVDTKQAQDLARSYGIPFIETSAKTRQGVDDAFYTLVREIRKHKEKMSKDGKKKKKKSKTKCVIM
Sequence of KRAS WT (P62937 whole entry): as the sequence (P62937 whole entry) above
Sequence of NRAS G12C (P01111 whole entry G12C): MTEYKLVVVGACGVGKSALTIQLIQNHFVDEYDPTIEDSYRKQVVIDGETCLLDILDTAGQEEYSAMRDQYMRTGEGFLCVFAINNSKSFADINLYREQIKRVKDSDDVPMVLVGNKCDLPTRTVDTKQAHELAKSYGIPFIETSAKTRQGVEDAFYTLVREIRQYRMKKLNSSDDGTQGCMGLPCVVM
Sequence of NRAS G12C (P62937 whole entry): as the sequence (P62937 whole entry) above
Sequence of NRAS WT (P01111 whole entry): as the sequence (P01111 whole entry G12C) above, with C12G counted along it
Sequence of NRAS WT (P62937 whole entry): as the sequence (P62937 whole entry) above
Sequence of KRAS G12C (P01116-2 other isoform, or with tags, fused parts or gaps G12C): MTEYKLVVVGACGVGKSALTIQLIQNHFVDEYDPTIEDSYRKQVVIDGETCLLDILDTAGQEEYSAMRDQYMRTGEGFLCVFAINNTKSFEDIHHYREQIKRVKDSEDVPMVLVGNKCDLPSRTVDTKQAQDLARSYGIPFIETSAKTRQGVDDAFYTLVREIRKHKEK
Sequence of KRAS G12C (P62937 whole entry): as the sequence (P62937 whole entry) above
Sequence of KRAS Q61H (P01116 other isoform, or with tags, fused parts or gaps Q61H): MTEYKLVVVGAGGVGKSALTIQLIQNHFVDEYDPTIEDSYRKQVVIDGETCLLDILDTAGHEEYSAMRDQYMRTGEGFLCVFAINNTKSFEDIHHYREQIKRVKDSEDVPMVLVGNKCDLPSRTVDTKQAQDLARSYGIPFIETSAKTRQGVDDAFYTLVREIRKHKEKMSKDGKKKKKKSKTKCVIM
Sequence of KRAS Q61H (P62937 whole entry): as the sequence (P62937 whole entry) above
Sequence of NRAS Q61R (P01111 whole entry Q61R): as the sequence (P01111 whole entry G12C) above, with C12G, Q61R counted along it
Sequence of NRAS Q61R (P62937 whole entry): as the sequence (P62937 whole entry) above

The IC50 is the concentration that gives 50% inhibition. Turning to `CCn1c(-c2cc(N3CCN(C)CC3)cnc2[C@H](C)OC)c2c3cc(ccc31)-c1csc(n1)C[C@H](NC(=O)[C@H](C(C)C)N(C)C(=O)N1CC(OC)C1)C(=O)N1CCC[C@H](N1)C(=O)OCC(C)(C)C2` [Compound A466], the IC50 in the test on NCI-H358 (K-Ras G12C) (setting [2]) was less than 0.01 µM; at KRAS G12S, 100 to 1000 nM; on NRAS G12C, 10 to 100 nM; on KRAS G13C, 100 to 1000 nM; at KRAS G12D, 100 to 1000 nM; at KRAS G13D it was 100 to 1000 nM. The IC50 lay in the range of 10 to 100 nM against KRAS Q61H; 10 to 100 nM at KRAS G12C; 10 to 100 nM against NRAS WT; 100 to 1000 nM at KRAS G12V; 100 to 1000 nM on KRAS WT.

As for `CCn1c(-c2cccnc2[C@H](C)OC)c2c3cc(ccc31)-c1csc(n1)[C@@H](OC)[C@H](NC(=O)[C@H](C(C)C)N(C)C(=O)N(C)C)C(=O)N1CCC[C@H](N1)C(=O)OCC(C)(C)C2` [Compound A598, (2S)—N-((6^3S,3S,4S,Z)-1^1-ethyl-3-methoxy-1^2-(2-((S)-1-methoxyethyl)pyridin-3-yl)-10,10-dimethyl-5,7-dioxo-6^1,6^2,6^3,6^4,6^5,6^6-hexahydro-1^1H-8-oxa-2 (4,2)-thiazola-1 (5,3)-indola-6 (1,3)-pyridazinacycloundecaphane-4-yl)-3-methyl-2-(1,3,3-trimethylureido) butanamide], the IC50 in the test on NCI-H358 (K-Ras G12C) (Homo sapiens, NCI-H358, 120 h, read-out: H358 Cell Viability assay data (K-Ras G12C, IC50, uM), 5-day treatment) was in the range of 0.01 to 0.1 µM; in [1] (Homo sapiens, NCI-H358, 120 h), 100 to 1000 nM; on KRAS G12S, 100 to 1000 nM; at NRAS G12C, 10 to 100 nM; on KRAS G13C it was 100 to 1000 nM; at KRAS G12D it was 1000 to 10000 nM. Besides, the IC50 on KRAS G13D was in the range of 100 to 1000 nM; against KRAS Q61H, 100 to 1000 nM; on KRAS G12C it was 10 to 100 nM; against NRAS WT, 100 to 1000 nM; at KRAS G12V, 100 to 1000 nM; at KRAS WT, 100 to 1000 nM. Further, on NRAS Q61R, the IC50 is 100 to 1000 nM.

Take `CCn1c(-c2cccnc2[C@H](C)OC)c2c3cc(ccc31)-c1csc(n1)C[C@H](NC(=O)[C@H](C(C)C)N(C)C(=O)N1CCC13CCS(=O)(=O)CC3)C(=O)N1CCC[C@H](N1)C(=O)OCC(C)(C)C2` [Compound A530]: the IC50 was in the range of 0.01 to 0.1 µM in the test on NCI-H358 (K-Ras G12C) (setting [2]); 100 to 1000 nM at KRAS G12S; 100 to 1000 nM on NRAS G12C; 100 to 1000 nM on KRAS G13C; 1000 to 10000 nM on KRAS G12D; 1000 to 10000 nM at KRAS G13D. Besides, the IC50 at KRAS Q61H was in the range of 10 to 100 nM; at KRAS G12C it was 100 to 1000 nM; at NRAS WT, 100 to 1000 nM; on KRAS G12V it was 100 to 1000 nM; at KRAS WT, 100 to 1000 nM; at NRAS Q61R, 100 to 1000 nM.

Turning to `CCOC1c2nc(cs2)-c2ccc3c(c2)c(c(-c2cc(C4CC5COCC(C4)N5C4CC4)cnc2C(C)OC)n3CC)CC(C)(C)COC(=O)C2CCCN(N2)C(=O)C1NC(=O)C1C(C)C1C` [Compound A483, (1r,2R,3S)—N-((6^3S,3S,4S,Z)-12-(5-((1R,5S,7s)-9-cyclopropyl-3-oxa-9-azabicyclo[3.3.1]nonan-7-yl)-2-((S)-1-methoxyethyl)pyridin-3-yl)-3-ethoxy-1^1-ethyl-10,10-dimethyl-5,7-dioxo-6^1,6^2,6^3,6^4,6^5,6^6-hexahydro-1^1H-8-oxa-2 (4,2)-thiazola-1 (5,3)-indola-6 (1,3)-pyridazinacycloundecaphane-4-yl)-2,3-dimethylcyclopropane-1-carboxamide], the IC50 with NCI-H358 (K-Ras G12C) (5-day treatment, read-out: H358 Cell Viability assay data (K-Ras G12C, IC50)) is less than 0.01 µM; in test [1] (K-Ras G12C, 5-day treatment), less than 10 nM; on KRAS G12S, 10 to 100 nM; on KRAS G13C, 100 to 1000 nM; on KRAS G12D, 10 to 100 nM; on KRAS Q61H it was 10 to 100 nM. In addition, the values for the IC50 at KRAS G12C and at KRAS G12V were 10 to 100 nM and 100 to 1000 nM, respectively.
